# ChEMBL document CHEMBL1140434, “1,2,4-Triazolo[1,5-a]quinoxaline as a versatile tool for the design of selective human A3 adenosine receptor antagonists: synthesis, biological evaluation, and molecular modeling studies of 2-(hetero)aryl- and 2-carboxy-substituted derivatives” (J Med Chem, 2005)
# Tests used:
# Adenosine receptor A1 [1] = biological target: T1, Adenosine receptor A1 (Bos taurus, UniProt P28190); test: Displacement of [3H]CHA from adenosine A1 receptor in bovine cerebral cortical membranes; type: cell membranes
# T1 sequence (P28190 whole entry): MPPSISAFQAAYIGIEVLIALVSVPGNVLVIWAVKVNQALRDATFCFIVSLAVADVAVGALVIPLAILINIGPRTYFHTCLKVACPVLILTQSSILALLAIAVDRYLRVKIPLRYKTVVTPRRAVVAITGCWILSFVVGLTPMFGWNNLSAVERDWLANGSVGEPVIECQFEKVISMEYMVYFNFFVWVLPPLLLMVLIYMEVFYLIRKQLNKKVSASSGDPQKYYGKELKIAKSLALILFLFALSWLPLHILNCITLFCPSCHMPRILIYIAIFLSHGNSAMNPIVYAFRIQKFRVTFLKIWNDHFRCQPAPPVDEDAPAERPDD
# [2] = biological target: Adenosine receptors; A1 & A3 (Homo sapiens) (UniProt P30542+P0DMS8); test: Selectivity for human adenosine A3 receptor over human adenosine A1 receptor; type: protein assay
# [3] = system: Adenosine receptor A2a (Bos taurus); test: Percentage inhibition of [3H]CGS 21680 binding to adenosine A2A receptor in bovine striatal membranes at 34 uM; conditions: Striatum, Membrane
# Adenosine receptor A3 = biological target: T2, Adenosine receptor A3 (Homo sapiens, UniProt P0DMS8); test: Displacement of [125I]AB-MECA from human adenosine A3 receptor expressed in CHO cells; type: cell-based
# T2 sequence (P0DMS8 whole entry): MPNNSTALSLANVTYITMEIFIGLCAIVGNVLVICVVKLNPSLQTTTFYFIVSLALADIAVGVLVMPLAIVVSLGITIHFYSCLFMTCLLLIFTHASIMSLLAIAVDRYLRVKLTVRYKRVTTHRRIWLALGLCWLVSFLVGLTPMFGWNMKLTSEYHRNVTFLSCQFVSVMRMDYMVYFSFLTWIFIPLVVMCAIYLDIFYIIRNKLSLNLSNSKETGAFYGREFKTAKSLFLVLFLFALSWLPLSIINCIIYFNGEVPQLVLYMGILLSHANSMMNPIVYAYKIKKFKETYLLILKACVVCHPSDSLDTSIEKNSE
# Adenosine receptor A1 [4] = biological target: T3, Adenosine receptor A1 (Homo sapiens, UniProt P30542); test: Displacement of [3H]CHA from cloned human adenosine A1 receptor expressed in CHO cells; type: cell-based
# T3 sequence (P30542 whole entry): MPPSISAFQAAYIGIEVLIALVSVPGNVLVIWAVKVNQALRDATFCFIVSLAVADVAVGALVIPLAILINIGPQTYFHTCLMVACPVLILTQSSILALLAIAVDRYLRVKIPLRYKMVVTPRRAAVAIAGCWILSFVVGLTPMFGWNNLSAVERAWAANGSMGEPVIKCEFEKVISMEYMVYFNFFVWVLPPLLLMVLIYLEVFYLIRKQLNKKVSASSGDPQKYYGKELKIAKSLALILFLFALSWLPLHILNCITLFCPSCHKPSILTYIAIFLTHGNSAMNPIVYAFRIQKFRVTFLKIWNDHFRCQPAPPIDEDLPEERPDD
# [5] = biological target: T4, Adenosine receptor A1 (Bos taurus) (UniProt P28190); test: Percentage inhibition of [3H]CHA binding to adenosine A1 receptor in bovine cerebral cortical membranes at 34 uM; type: cell membranes
# T4 sequence (whole entry): T1 sequence (P28190 whole entry)
# [6] = biological target: T5, Adenosine receptor A3 (Homo sapiens) (UniProt P0DMS8); test: Percentage inhibition of [125I]AB-MECA binding to human adenosine A3 receptor expressed in CHO cells at 1 uM; type: cell-based
# T5 sequence (whole entry): T2 sequence (P0DMS8 whole entry)
# [7] = system: Adenosine receptor A2a (Bos taurus); test: Percentage inhibition of [3H]CGS 21680 binding to adenosine A2A receptor in bovine striatal membranes at 20 uM; conditions: Striatum, Membrane
# [8] = biological target: T4, Adenosine receptor A1 (Bos taurus); test: Percentage inhibition of [3H]CHA binding to adenosine A1 receptor in bovine cerebral cortical membranes at 20 uM; type: cell membranes
# [9] = Selectivity for human adenosine A3 receptor over human adenosine A2A receptor
# [10] = biological target: Adenosine receptor A2a (Homo sapiens) (UniProt P29274); test: Percentage inhibition of [3H]NECA binding to cloned human adenosine A2A receptor expressed in CHO cells at 10 uM; type: cell-based
# Chain of Adenosine receptor A2a (Homo sapiens) (P29274 whole entry): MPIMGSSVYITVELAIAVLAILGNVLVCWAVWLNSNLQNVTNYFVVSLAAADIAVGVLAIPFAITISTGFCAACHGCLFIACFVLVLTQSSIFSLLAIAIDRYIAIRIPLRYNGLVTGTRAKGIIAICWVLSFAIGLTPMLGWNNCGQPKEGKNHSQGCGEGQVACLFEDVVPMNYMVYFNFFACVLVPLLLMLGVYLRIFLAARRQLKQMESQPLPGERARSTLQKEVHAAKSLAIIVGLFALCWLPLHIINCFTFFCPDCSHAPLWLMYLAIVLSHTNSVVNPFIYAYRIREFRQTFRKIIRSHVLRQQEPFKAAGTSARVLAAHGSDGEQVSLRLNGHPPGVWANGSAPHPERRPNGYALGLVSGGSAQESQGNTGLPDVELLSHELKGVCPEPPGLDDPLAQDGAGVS
# [11] = biological target: Adenosine receptor A2a (Bos taurus); test: Displacement of [3H]CGS 21680 from adenosine A2A receptor in bovine striatal membranes
# [12] = biological target: T6, Adenosine receptor A1 (Homo sapiens) (UniProt P30542); test: Percentage inhibition of [3H]CHA binding to cloned human adenosine A1 receptor expressed in CHO cells at 10 uM; type: cell-based
# T6 sequence (whole entry): T3 sequence (P30542 whole entry)
# [13] = biological target: T4, Adenosine receptor A1 (Bos taurus); test: Percentage inhibition of [3H]CHA binding to adenosine A1 receptor in bovine cerebral cortical membranes at 10 uM; type: cell membranes
Structure (SMILES),Ki (Adenosine receptor A1 [1]) [nM],Ki (Adenosine receptor A3) [nM],inhibition [7] [%],inhibition [8] [%],also measured
COc1ccc(-c2nc3c(O)nc4ccc(C)cc4n3n2)cc1,1440,2.5,,,Ratio Ki [2]: 1.1; inhibition [3]: 5%; Ki (Adenosine receptor A1 [4]): 2.86 nM
CCOC(=O)c1nc2c(=O)[nH]c3ccc(C)cc3n2n1,,108,,,
CCOC(=O)c1nc2c(=O)n(O)c3ccccc3n2n1,,,,,inhibition [5]: 6.9%; inhibition [6]: 20%; inhibition [3]: 2%
Oc1nc2ccccc2n2nc(-c3cccs3)nc12,2940,2,,,Ratio Ki [2]: 1; inhibition [3]: 54%; Ki (Adenosine receptor A1 [4]): 2 nM
Oc1nc2ccc(Cl)cc2n2nc(-c3ccccc3)nc12,2400,163,,,
Cc1ccc2[nH]c(=O)c3nc(-c4ccccc4)nn3c2c1,525,111,,,
CC(C)OC(=O)c1nc2c(O)nc3ccccc3n2n1,,420,2.9,0,
Oc1nc2ccc(Cl)cc2n2nc(-c3ccco3)nc12,3660,6,,,Ratio Ki [9]: > 1700; Ratio Ki [2]: 457; inhibition [10]: 33%; Ki [11]: 5160 nM; Ki (Adenosine receptor A1 [4]): 2740 nM
Oc1nc2ccccc2n2nc(-c3ccccc3)nc12,,,7,,
CCOC(=O)c1nc2c(=O)[nH]c3cc(N)ccc3n2n1,,354,,,
CCOC(=O)c1nc2c(=O)[nH]c3ccc(Cl)cc3n2n1,,557,,,
CCOC(=O)c1nc2c(=O)[nH]c3ccc(NC(C)=O)cc3n2n1,14200,673,,,
Cn1c(=O)c2nc(-c3ccccc3)nn2c2ccccc21,1080,,8.8,,inhibition [6]: 30%
COc1ccc(-c2nc3c(O)nc4ccccc4n3n2)cc1,,,,,inhibition [5]: 0%; inhibition [10]: 49%; inhibition [12]: 32%
CCOC(=O)c1nc2c(N)nc3ccc(Cl)cc3n2n1,5,,,,inhibition [6]: 15%; Ki [11]: 4900 nM
Oc1nc2ccc(Cl)cc2n2ncnc12,,,23,0,inhibition [6]: 18.8%
COc1ccc(-c2nc3c(=O)[nH]c4ccc(Cl)cc4n3n2)cc1,1060,25.8,,,Ki (Adenosine receptor A1 [4]): 3.29 nM
O=c1[nH]c2ccccc2n2nc(-c3ccccc3)nc12,268,396,,,
Nc1nc2ccc(Cl)cc2n2nc(-c3ccccc3)nc12,50,91.4,,,
CCOC(=O)c1nc2c(O)nc3ccc(Cl)cc3n2n1,,,,20,inhibition [3]: 7%
Cc1ccc2c(c1)n1nc(-c3ccccc3)nc1c(=O)n2C,508,308,,,
CCOC(=O)c1nc2c(O)nc3ccccc3n2n1,,70.8,3.6,26,Ratio Ki [9]: > 150; Ratio Ki [2]: > 150; inhibition [10]: 0%; inhibition [12]: 5%
Cn1c(=O)c2nc(-c3ccccc3)nn2c2cc(Cl)ccc21,,,0,18,inhibition [6]: 19%

Structure (SMILES),Ki (Adenosine receptor A1 [1]) [nM],Ki (Adenosine receptor A3) [nM],inhibition [7] [%],inhibition [8] [%],also measured
CCOC(=O)c1nc2c(=O)n(CC)c3ccccc3n2n1,,,,,inhibition [5]: 13.3%; inhibition [6]: 0%; inhibition [3]: 20.5%
Oc1nc2ccc(Cl)cc2n2nc(-c3ccoc3)nc12,1950,78,,,Ratio Ki [2]: 1.6; inhibition [3]: 25.3%; Ki (Adenosine receptor A1 [4]): 125 nM
O=C(NCc1ccccc1)c1nc2c(O)nc3ccccc3n2n1,,,27,,Ratio Ki [2]: 2.5
O=C(O)c1nc2c(O)nc3ccccc3n2n1,,,,,inhibition [5]: 10%; inhibition [6]: 6.4%; inhibition [3]: 0%
O=C(NCc1ccccc1)c1nc2c(=O)[nH]c3ccccc3n2n1,578,82,,,Ki (Adenosine receptor A1 [4]): 205 nM
O=c1[nH]c2ccc(Cl)cc2n2nc(-c3ccsc3)nc12,1000,126,,,
CCOC(=O)c1nc2c(=O)n(C)c3ccc(Cl)cc3n2n1,,,0,8,inhibition [6]: 60%
CCOC(=O)c1nc2c(=O)n(C(=O)OCC)c3ccccc3n2n1,,28.2,4,14,Ratio Ki [9]: > 350; Ratio Ki [2]: > 350; inhibition [10]: 9%; inhibition [12]: 12%
Oc1nc2ccc(Cl)cc2n2nc(-c3cccs3)nc12,,,,,inhibition [5]: 54.2%
CCOC(=O)c1nc2c(O)nc3ccc(C)cc3n2n1,,,6.5,41,
NC(=O)c1nc2c(O)nc3ccccc3n2n1,,,17,15,inhibition [6]: 32%
Cc1ccc2nc(O)c3nc(-c4ccccc4)nn3c2c1,,,25,,
Oc1nc2ccccc2n2ncnc12,,,20,29,inhibition [6]: 53%
CCOC(=O)c1nc2c(O)nc3ccc(N)cc3n2n1,,25,32.7,64,Ratio Ki [9]: > 400; Ratio Ki [2]: > 400; inhibition [10]: 22%; inhibition [12]: 33%
CCOC(=O)c1nc2c(O)nc3cc(Cl)ccc3n2n1,,340,15.2,48,
CCOC(=O)c1nc2c(=O)n(C)c3ccccc3n2n1,,820,,6.4,
CCOC(=O)c1nc2c(O)nc3cc(N)ccc3n2n1,,,9,43,
Oc1nc2ccccc2n2nc(-c3ccco3)nc12,,33,,,Ki (Adenosine receptor A1 [4]): 1930 nM
O=C(OCc1ccccc1)c1nc2c(O)nc3ccccc3n2n1,3220,51.6,47,,Ratio Ki [9]: > 200; Ratio Ki [2]: > 200; inhibition [10]: 27%; inhibition [12]: 33%
O=c1[nH]c2ccc(Cl)cc2n2nc(-c3cccs3)nc12,,257,,,
COc1ccc(-c2nc3c(N)nc4ccc(Cl)cc4n3n2)cc1,150,2.9,,,inhibition [10]: 21%; Ki (Adenosine receptor A1 [4]): 36 nM
Cn1c(=O)c2ncnn2c2cc(Cl)ccc21,,,8.9,11,inhibition [6]: 0%
CCOC(=O)c1nc2c(O)nc3ccc([N+](=O)[O-])cc3n2n1,,,7.4,,inhibition [6]: 0%; inhibition [13]: 58%
